Reference: patent US12479845B2, “Imidazopyridine derivative compounds and use of same” (HANMI PHARM. CO., LTD., priority 2019, dated 2025)

Tested on: NCI-H1417 cells
Test: Cell growth suppression test (CellTiter-Glo Luminescent Cell Viability Assay, 10 days treatment)
Format: cell-based
Details: Homo sapiens, 240 h, treated for 10 days
Protocol: Cell growth suppression effects of the synthesized compounds on NCI-H1417 cells were identified. The cells were treated with the synthesized compounds for 10 days. Then, in order to test the cell growth suppression, CellTiter-Glo Luminescent Cell Viability Assay (available from Promega, USA) was used. This test is to measure emission signals proportional to the number of ATPs based on a fixed amount of ATPs, which represents the presence of metabolically active cells, thereby determining the number of viable cells. The results are expressed as a Gl50 value. As for a control, GSK2879552 (available from GlaxoSmithKline USA) was used.

Compound	GI50 [nM]
COCCCN(C)c1ccc(-n2c(-c3ccc(C#N)c(F)c3)nc3c(N4CCC[C@@H](N)C4)ccnc32)cc1 [Example 48, (R)-4-(7-(3-aminopiperidine-1-yl)-3-(4-((3-methoxypropyl)(methyl)amino)phenyl)-3H-imidazo[4,5-b]pyridine-2-yl)-2-fluorobenzonitrile]	23
CCCCCCc1ccc(-n2c(-c3ccc(C#N)c(F)c3)nc3c(N4CCC[C@@H](N)C4)ccnc32)cc1 [Example 51, (R)-4-(7-(3-aminopiperidine-1-yl)-3-(4-hexylphenyl)-3H-imidazo[4,5-b]pyridine-2-yl)-2-fluorobenzonitrile]	242
CO[C@H]1CCN(c2ccc(-n3c(-c4ccc(C#N)cc4F)nc4c(N5CCC[C@@H](N)C5)ccnc43)c(F)c2)C1 [Example 52, 4-(7-((R)-3-aminopiperidine-1-yl)-3-(2-fluoro-4-((S)-3-methoxypyrrolidine-1-yl)phenyl)-3H-imidazo[4,5-b]pyridine-2-yl)-3-fluorobenzonitrile]	30
COc1cc(C#N)ccc1-c1nc2c(N3CCC[C@@H](N)C3)ccnc2n1-c1ccc(N2CC[C@H](OC)C2)cc1F [Example 53, 4-(7-((R)-3-aminopiperidine-1-yl)-3-(2-fluoro-4-((S)-3-methoxypyrrolidine-1-yl)phenyl)-3H-imidazo[4,5-b]pyridine-2-yl)-3-methoxybenzonitrile]	> 1000
Cn1ccc2cc(-n3c(-c4ccc(C#N)c(F)c4)nc4c(N5CCC[C@@H](N)C5)ccnc43)cnc21 [Example 54, (R)-4-(7-(3-aminopiperidine-1-yl)-3-(1-methyl-1H-pyrrolo[2,3-b]pyridine-5-yl)-3H-imidazo[4,5-b]pyridine-2-yl)-2-fluorobenzonitrile]	21
Cn1ncc2cc(-n3c(-c4ccc(C#N)c(F)c4)nc4c(N5CCC[C@@H](N)C5)ccnc43)ccc21 [Example 55, (R)-4-(7-(3-aminopiperidine-1-yl)-3-(1-methyl-1H-indazole-5-yl)-3H-imidazo[4,5-b]pyridine-2-yl)-2-fluorobenzonitrile]	7.9
CO[C@H]1CCCN(c2ccc(-n3c(-c4ccc(C#N)c(F)c4)nc4c(N5CCC[C@@H](N)C5)ccnc43)c(F)c2)C1 [Example 56]	14
CN(C)C1CCN(c2ccc(-n3c(-c4ccc(C#N)c(F)c4)nc4c(N5CCC[C@@H](N)C5)ccnc43)c(F)c2)C1 (stereo partly drawn) [Example 57, 4-(7-((R)-3-aminopiperidine-1-yl)-3-(4-(3-(dimethylamino)pyrrolidine-1-yl)-2-fluorophenyl)-3H-imidazo[4,5-b]pyridine-2-yl)-2-fluorobenzonitrile]	53
N#Cc1ccc(-c2nc3c(N4CCC[C@@H](N)C4)ccnc3n2-c2ccc3scnc3c2)cc1F [Example 58, (R)-4-(7-(3-aminopiperidine-1-yl)-3-(benzo[d]thiazole-5-yl)-3H-imidazo[4,5-b]pyridine-2-yl)-2-fluorobenzonitrile]	64
CO[C@H]1CCN(c2ccc(-n3c(-c4ccc(C#N)c(F)c4)nc4c(N5C6CCC5CC(N)C6)ccnc43)c(F)c2)C1 (stereo partly drawn) [Example 63, 4-(7-(3-amino-8-azabicyclo[3.2.1]octane-8-yl)-3-(2-fluoro-4-((S)-3-methoxypyrrolidine-1-yl)phenyl)-3H-imidazo[4,5-b]pyridine-2-yl)-2-fluorobenzonitrile]	290
CO[C@H]1CCN(c2ccc(-n3c(-c4ccc(C#N)c(F)c4)nc4c(N5CCC6(CCNC6)C5)ccnc43)c(F)c2)C1 (stereo partly drawn) [Example 65, 2-fluoro-4-(3-(2-fluoro-4-((S)-3-methoxypyrrolidine-1-yl)phenyl)-7-(2,7-diazaspiro[4.4]nonane-2-yl)-3H-imidazo[4,5-b]pyridine-2-yl)benzonitrile]	39
CO[C@H]1CCN(c2ccc(-n3c(-c4ccc(C#N)c(F)c4)nc4c(N5CCC6(CC5)CNC6)ccnc43)c(F)c2)C1 [Example 66, (S)-2-fluoro-4-(3-(2-fluoro-4-(3-methoxypyrrolidine-1-yl)phenyl)-7-(2,7-diazaspiro[3.5]nonane-7-yl)-3H-imidazo[4,5-b]pyridine-2-yl)benzonitrile]	23
